Test results published in patent US12521395B2, “Gem-disubstituted heterocyclic compounds and their use as IDH inhibitors” (NERVIANO MEDICAL SCIENCES S.R.L., priority 2019, dated 2026).

Experiments:
[1] = tested on: cell lines HT-1080 (IDH1^R132C); test: Cellular assay: inhibition of 2HG production, LC-MS/MS; format: cell-based; conditions: Homo sapiens, 72 hr incubation, 2-HG in cell culture media, read-out: HT1080 2-HG IC50
Experimental: Cell lines HT-1080 (commercially available) are maintained in E-MEM 10% FCS and incubated at 37° C. in a humidified 5% CO2 atmosphere.
Cells are seeded into 96 well black flat bottom plates at a density of 500 cells/well in 100 μL complete medium. After 24 hr the medium is replaced with 200 μL of fresh medium and compounds (dissolved into DMSO) are administrated to the cells using D300E Digital Dispenser (Tecan).
After 72 hr of incubation 100 μL from each well are collected and used for 2HG (R(−)-2-hydroxyglutarate) quantification. Levels of 2-HG in cell culture media are determined by LC-MS/MS. Cell supernatants (100 μL/well) are treated with 1 M aqueous trichloroacetic acid containing 130 μM of the internal standard 2-HG-d3 (20 μL/well) in a 96-well plate. The plates are sealed, mildly vortexed for 60 minutes, centrifuged at 4,000 RPM for 15 minutes, placed in a refrigerated autosampler taking care not to shake them, and aliquots of the upper part of the samples are directly injected in the chromatographic system. Calibration standards are obtained by ten folds dilution of aqueous 2-HG stock solutions with blank cell culture medium and denatured exactly in the same way as described above for samples. Samples and standards are assayed for 2-HG by reversed phase chromatography on a C18 column eluted with aqueous 0.15% formic acid and briefly washed with 90% methanol at the end of the run. 2-HG is determined by negative ion electrospray ionization with the internal standard method on a triple quadrupole mass spectrometer monitoring the MRM transitions 147>129 (2-HG) and 150>132 (2-HG-d3).
2-HG inhibition was calculated by comparing treated versus control data using Assay Explore (Symyx) software, with IC50 determined using a sigmoidal fitting algorithm.

[2] = biological target: T1, IDH2^R172K (Homo sapiens, UniProt P48735, R172K); test: NADPH depletion assay (diaphorase/resazurin), IDH2 R172K; format: biochemical; conditions: IDH2^R172K 16 nM, alpha-ketoglutarate 0.55 mM
T1 sequence (P48735 40-452 R172K): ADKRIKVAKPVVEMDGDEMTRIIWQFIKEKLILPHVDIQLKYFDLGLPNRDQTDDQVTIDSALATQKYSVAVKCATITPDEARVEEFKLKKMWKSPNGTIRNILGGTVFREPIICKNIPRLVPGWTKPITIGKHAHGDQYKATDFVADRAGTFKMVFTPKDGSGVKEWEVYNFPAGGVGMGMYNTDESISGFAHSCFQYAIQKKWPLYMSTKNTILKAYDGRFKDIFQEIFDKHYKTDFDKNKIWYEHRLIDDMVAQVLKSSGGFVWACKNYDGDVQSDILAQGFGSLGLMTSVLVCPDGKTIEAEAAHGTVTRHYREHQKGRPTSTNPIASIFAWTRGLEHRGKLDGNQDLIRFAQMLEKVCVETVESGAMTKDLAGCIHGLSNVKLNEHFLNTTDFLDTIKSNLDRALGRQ
Experimental: (§1) IDH mutated enzyme activity converting alpha-ketoglutarate to 2-hydroxyglutaric acid is measured using a NADPH depletion assay. In the assay the remaining cofactor is measured at the end of the reaction with the addition of a catalytic excess of diaphorase and resazurin, to generate a fluorescent signal in proportion to the amount of NADPH remaining. IDH1 WT enzyme as well as mutated isoforms IDH1^R132H, IDH1^R132C, and IDH2^R172K enzymes are commercially available proteins (see e.g. Sino Biological, Abcam, Active Motif or Creative BioMart).
(§2) IDH1^R132H homodimer enzyme are diluted to 8 nM, in 10 μL of Assay Buffer (150 mM NaCl, 50 mM Tris-HCl pH 7.6, 10 mM MgCl2, 0.001% Triton X-100, 4 mM β-mercaptoethanol); 0.2 μL of test compound, previously serially diluted 1 to 3, >10 experimental points from 1 mM in DMSO, is added and the mixture is incubated for 15 minutes at room temperature. The reaction is started with the addition of 10 μL of Substrate Mix (12 μM NADPH, 3.4 mM alpha-ketoglutarate in Assay Buffer) and the mixture is incubated for 60 minutes at room temperature. The reaction is terminated with the addition of 5 μl of Detection Buffer (100 μg/mL diaphorase, 30 μM resazurin, in IX Assay Buffer), and is incubated for 15 minutes before reading on a ViewLux as platereader at Ex544/Em590.
Compounds are assayed for their activity against IDH2^R172K following the same assay as above with the following modifications: IDH2^R172K and alpha-ketoglutarate final concentrations in the Assay Buffer is 16 nM and 0.55 mM, respectively.

[3] = biological target: IDH1 wild type enzyme (Homo sapiens, UniProt O75874); test: Enzymatic assay for IDH1 wild-type (NADPH forming assay); format: biochemical; conditions: 0.016 nM IDH1WT, 15 min preincubation
Experimental: IDH1WT enzymatic activity converting isocitric acid to alpha-ketoglutarate is measured using a NADPH forming assay. In the assay the forming cofactor is measured in continuous with the addition of a catalytic excess of diaphorase and resazurin, to generate a fluorescent signal in proportion to the amount of NADPH forming.
Compounds were preincubated with the enzyme, then the reaction was started by the addition of NADP+, isocitrate, diaphorase and a corresponding substrate, resazurin. Diaphorase reduces resazurin to the highly fluorescent resorufin with the concomitant oxidation of NADPH to NADP. Specifically, 0.2 μL of test compound, previously serially diluted 1 to 3, >10 experimental points from 1 mM in DMSO, was added to 0.016 nM IDH1WT enzyme in 10 μL of Assay Buffer (150 mM NaCl, 50 mM Tris-HCl pH 7.6, 10 mM MgCl2, 0.001% Triton X-100, 4 mM β-mercaptoethanol); the mixture is incubated for 15 minutes at room temperature. The reaction is started with the addition of 10 μL of Substrate Mix (400 μM NADP^+, 40 μM iso-citrate, 5 ugr/mL Diaphorase and 7 μM resazurin in Assay Buffer), the mixture is incubated at room temperature and the reaction is reading on a ViewLux as platereader at Ex544/Em590 in continuous.

[4] = biological target: IDH1^R132C (Homo sapiens, UniProt O75874, R132C); test: NADPH depletion assay (diaphorase/resazurin), IDH1 R132C; format: biochemical; conditions: IDH1^R132C 2 nM, alpha-ketoglutarate 0.14 mM; read-out: IDH1^R132C IC50
[5] = biological target: IDH1^R132H (Homo sapiens, UniProt O75874, R132H); test: NADPH depletion assay (diaphorase/resazurin), IDH1 R132H; format: biochemical; conditions: 15 min preincubation, 60 min reaction, room temperature
Experimental: as §1, §2

Chain of IDH1 wild type enzyme (O75874 whole entry): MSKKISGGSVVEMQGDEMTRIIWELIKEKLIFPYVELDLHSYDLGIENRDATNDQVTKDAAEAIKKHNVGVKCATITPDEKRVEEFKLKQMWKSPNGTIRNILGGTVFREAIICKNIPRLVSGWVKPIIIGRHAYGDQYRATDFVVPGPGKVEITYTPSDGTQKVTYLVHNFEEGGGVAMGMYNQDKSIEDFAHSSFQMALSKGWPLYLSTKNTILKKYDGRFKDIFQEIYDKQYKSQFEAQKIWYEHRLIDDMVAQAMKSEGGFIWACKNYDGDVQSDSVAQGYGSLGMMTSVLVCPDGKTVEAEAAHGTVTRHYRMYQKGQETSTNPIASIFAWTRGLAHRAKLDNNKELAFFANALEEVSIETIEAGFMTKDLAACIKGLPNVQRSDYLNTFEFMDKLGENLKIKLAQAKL
Chain of IDH1^R132H (O75874 whole entry R132H): as the sequence (O75874 whole entry) above, with R132H counted along it
Chain of IDH1^R132C (O75874 whole entry R132C): as the sequence (O75874 whole entry) above, with R132C counted along it

| SMILES | IC50 [1] [nM] | IC50 [2] [nM] | IC50 [3] [nM] | IC50 [4] [nM] | IC50 [5] [nM] |
| --- | --- | --- | --- | --- | --- |
| C=CC(=O)N1CCN(C2(c3ccc([C@H](C)Nc4ncc5ccc(=O)n(C(C)C)c5n4)cc3)CCC(F)(F)CC2)CC1 [cpd 26, 2-{[(1S)-1-{4-[1-(4-acryloylpiperazin-1-yl)-4,4-difluorocyclohexyl]phenyl}ethyl]amino}-8-(propan-2-yl)pyrido[2,3-d]pyrimidin-7(8H)-one] | 0.5 | 126 | 126 | 2 | 3 |
| C=CC(=O)N1CCN(C2(c3ccc([C@H](C)Nc4cc5c(ccc(=O)n5C(C)C)cn4)cc3)CCC(F)(F)CC2)CC1 [cpd 47, 7-{[(1S)-1-{4-[1-(4-acryloylpiperazin-1-yl)-4,4-difluorocyclohexyl]phenyl}ethyl]amino}-1-(propan-2-yl)-1,6-naphthyridin-2(1H)-one] | 0.6 | 97 | 97.4 | 1 | 2 |
| C=CC(=O)N1CC(N(C)C2(c3ccc([C@H](C)Nc4ncc5ccc(=O)n(C(C)C)c5n4)cc3)CCC(F)(F)CC2)C1 [cpd 50, 2-{[(1S)-1-(4-{1-[(1-acryloylazetidin-3-yl)(methyl)amino]-4,4-difluorocyclohexyl}phenyl)ethyl]amino}-8-(propan-2-yl) pyrido[2,3-d]pyrimidin-7(8H)-one] | 10 | 516 | 516 | 5 | 20 |
| C=CC(=O)N1CCN(C2(c3ccc(C(C)(C)Nc4ncc5ccc(=O)n(C(C)C)c5n4)cc3)CCC(F)(F)CC2)CC1 [cpd 52, 2-[(2-{4-[1-(4-acryloylpiperazin-1-yl)-4,4-difluorocyclohexyl]phenyl}propan-2-yl)amino]-8-(propan-2-yl)pyrido[2,3-d]pyrimidin-7(8H)-one] | 4 | 322 | 321 | 9 | 14 |
| CC(C)n1c(=O)ccc2cnc(N[C@@H](C)c3ccc(C4(N(C)C5CN(C(=O)C(F)Cl)C5)CCC(F)(F)CC4)cc3)nc21 (stereo partly drawn) [cpd 53, 2-{[(1S)-1-(4-{1-[{1-[chloro(fluoro)acetyl]azetidin-3-yl}(methyl)amino]-4,4-difluorocyclohexyl}phenyl)ethyl]amino}-8-(propan-2-yl)pyrido[2,3-d]pyrimidin-7(8H)-one] | 40 |  |  | 28 |  |

Second part, the molecule after the results:

| IC50 [1] [nM] | IC50 [2] [nM] | IC50 [3] [nM] | IC50 [4] [nM] | IC50 [5] [nM] | SMILES |
| --- | --- | --- | --- | --- | --- |
| 2.4 | 111 | 133 | 3.3 | 3.5 | C=CC(=O)N1CCN(C2(c3ccc([C@H](C)Nc4ncc5ccc(=O)n(C(C)C)c5n4)cc3)CCOCC2)CC1 [cpd 1, 2-{[(1S)-1-{4-[4-(4-acryloylpiperazin-1-yl)tetrahydro-2H-pyran-4-yl]phenyl}ethyl]amino}-8-(propan-2-yl)pyrido[2,3-d]pyrimidin-7(8H)-one] |
| 0.6 | 22.8 | 313 | 1.7 | 3.8 | C=CC(=O)N1CCN(C(CC)(CC)c2ccc([C@H](C)Nc3ncc4ccc(=O)n(C(C)C)c4n3)cc2)CC1 [cpd 4, 2-{[(1S)-1-{4-[3-(4-acryloylpiperazin-1-yl)pentan-3-yl]phenyl}ethyl]amino}-8-(propan-2-yl)pyrido[2,3-d]pyrimidin-7(8H)-one] |
| 2.6 | 291 | 364 | 4.8 | 6.4 | C=CC(=O)N1CCN(C2(c3ccc([C@H](C)Nc4cc5c(ccc(=O)n5C(C)C)cn4)cc3)CCOCC2)CC1 [cpd 11, 7-{[(1S)-1-{4-[4-(4-acryloylpiperazin-1-yl)tetrahydro-2H-pyran-4-yl]phenyl}ethyl]amino}-1-(propan-2-yl)-1,6-naphthyridin-2(1H)-one] |
